What all share (format): functional
Common to all, as to parameters: scale not given: the % may be the effect or the level left

The test system of test [1] is Mycobacterium tuberculosis. Briefly: Antitubercular activity against streptomycin, isoniazid, rifampicin,ethambutol-resistant Mycobacterium tuberculosis clinical isolate assessed as reduction in RLU at 500 ug/mL after 72 hrs by luciferase reporter phage assay.
In test [2] the test system is Mycobacterium tuberculosis. Briefly: Antitubercular activity against streptomycin, isoniazid, rifampicin,ethambutol-resistant Mycobacterium tuberculosis clinical isolate assessed as reduction in RLU at 100 ug/mL after 72 hrs by luciferase reporter phage assay. Background: Reporter assays use an easily measured gene product as a stand-in for the process of interest.

For test [3], the system named is Mycobacterium tuberculosis. Briefly: Antitubercular activity against streptomycin, isoniazid, rifampicin,ethambutol-resistant Mycobacterium tuberculosis clinical isolate assessed as reduction in RLU at 0.5 ug/mL after 72 hrs by luciferase reporter phage assay.
For test [4], the system named is Mycobacterium tuberculosis. Briefly: Antitubercular activity against streptomycin, isoniazid, rifampicin,ethambutol-resistant Mycobacterium tuberculosis clinical isolate assessed as reduction in RLU at 2 ug/mL after 72 hrs by luciferase reporter phage assay.

For seven molecules, Activity results are on record in ChEMBL document CHEMBL2203181, “Microwave-assisted synthesis, molecular docking and antitubercular activity of 1,2,3,4-tetrahydropyrimidine-5-carbonitrile derivatives” (2012).

Structures are written as SMILES.

Turning to `N#Cc1c(-c2ccc(F)cc2)[nH]c(=O)[nH]c1=O`, the results for the Activity in test [1] and in test [2] were 47.86% and 38.38%, respectively.

In the case of `N#Cc1c(-c2cccc(Cl)c2)[nH]c(=O)[nH]c1=O`, the figures for the Activity in test [1] and in test [2] were 52.77% and 50.1%, respectively.

On to `COc1ccc(-c2[nH]c(=O)[nH]c(=O)c2C#N)cc1O`, for which the Activity in test [1] is reported as 33.49%; in test [2] it was 25.47%.

`N#Cc1c(-c2ccc(Cl)cc2)[nH]c(=S)[nH]c1=O`: the Activity in test [1] came to 66.65%; in test [2], 61.35%.

For the molecule `N#Cc1c(-c2ccc(Br)cc2)[nH]c(=S)[nH]c1=O`, the Activity in test [1] was determined as 74.91%; in test [2], 38.03%.

Regarding `NNC(=O)c1ccncc1` [ISONIAZID], the Activity in test [3] came to 89.6%.

Take `CO[C@H]1/C=C/O[C@@]2(C)Oc3c(C)c(O)c4c(O)c(c(/C=N/N5CCN(C)CC5)c(O)c4c3C2=O)NC(=O)/C(C)=C\C=C\[C@H](C)[C@H](O)[C@@H](C)[C@@H](O)[C@@H](C)[C@H](OC(C)=O)[C@@H]1C` [RIFAMPIN]: the Activity in test [4] amounted to 29.19%.
